In brackets after ≈: the same amount, converted by molar mass.
What was measured:
[1] = test system: Staphylococcus aureus; test: In vitro antibacterial activity against Staphylococcus aureus; assay type: functional
[2] = test system: Staphylococcus aureus; test: In vivo efficacy;(sc) tested for protection against staphylococcus infections in mice; assay type: functional; details: read-out: PD50
[3] = test system: Streptococcus pneumoniae; test: In vitro antibacterial activity against Streptococcus pneumoniae; assay type: functional
[4] = test system: Enterococcus faecalis; test: In vitro antibacterial activity against Enterococcus faecalis; assay type: functional
[5] = Aqueous solubility at neutral pH; assay type: physicochemical
[6] = test system: Enterococcus faecalis; test: In vitro antibacterial activity against Enterococcus faecalis; 0.06-0.125; assay type: functional
[7] = test system: Streptococcus pneumoniae; test: In vitro antibacterial activity against Streptococcus pneumoniae; 0.003-0.015; assay type: functional
[8] = test system: Staphylococcus aureus; test: In vitro antibacterial activity against […]; 0.125-0.25; assay type: functional

Row | SMILES | MIC [1] | ED50 [2] | MIC [3] | MIC [4] | solubility [5] | MIC [6] | MIC [7] | MIC [8]
1 | C=C(NC(=O)c1csc(-c2nc3c(cc2OC)-c2nc(cs2)C(=O)N[C@@H]([C@@H](C)O)C(=O)N/C(=C(\C)OC)c2nc(cs2)C(=O)N[C@@H]2c4nc(cs4)C(=O)N[C@@H](COC(=O)c4c5c6c(cccc6n4O)COC(=O)[C@@H](O[C@H]4C[C@](C)(O)[C@H](N(C)C)[C@H](C)O4)[C@H]2OC5)c2nc-3cs2)n1)C(N)=O | 0.015 µg/mL (≈ 0.0103 µM) | > 10 mg/kg | 0.003 µg/mL (≈ 0.00207 µM) | 0.015 µg/mL (≈ 0.0103 µM) |  |  |  | 
2 | C=C(NC(=O)c1csc(-c2nc3c(cc2OCOP(=O)(O)O)-c2nc(cs2)C(=O)N[C@@H]([C@@H](C)O)C(=O)N/C(=C(\C)OC)c2nc(cs2)C(=O)N[C@@H]2c4nc(cs4)C(=O)N[C@@H](COC(=O)c4c5c6c(cccc6n4OCOP(=O)(O)O)COC(=O)[C@@H](O[C@H]4C[C@](C)(O)[C@H](N(C)C)[C@H](C)O4)[C@H]2OC5)c2nc-3cs2)n1)C(N)=O | 0.125 µg/mL (≈ 0.0754 µM) | 0.15 mg/kg | 0.015 µg/mL (≈ 0.00905 µM) | 0.25 µg/mL (≈ 0.151 µM) | > 2000 µg/mL |  |  | 
3 | C=C(NC(=O)c1csc(-c2nc3c(cc2OCCCS(=O)(=O)O)-c2nc(cs2)C(=O)N[C@@H]([C@@H](C)O)C(=O)N/C(=C(\C)OC)c2nc(cs2)C(=O)N[C@@H]2c4nc(cs4)C(=O)N[C@@H](COC(=O)c4c5c6c(cccc6n4OCCCS(=O)(=O)O)COC(=O)[C@@H](O[C@H]4C[C@](C)(O)[C@H](N(C)C)[C@H](C)O4)[C@H]2OC5)c2nc-3cs2)n1)C(N)=O | > 128 µg/mL |  | 0.5 µg/mL (≈ 0.297 µM) | 128 µg/mL (≈ 76.1 µM) | > 2000 µg/mL |  |  | 
4 | C=C(NC(=O)c1csc(-c2nc3c(cc2OCCN2CCOCC2)-c2nc(cs2)C(=O)N[C@@H]([C@@H](C)O)C(=O)N/C(=C(\C)OC)c2nc(cs2)C(=O)N[C@@H]2c4nc(cs4)C(=O)N[C@@H](COC(=O)c4c5c6c(cccc6n4OCCN4CCOCC4)COC(=O)[C@@H](O[C@H]4C[C@](C)(O)[C@H](N(C)C)[C@H](C)O4)[C@H]2OC5)c2nc-3cs2)n1)C(N)=O | 1 µg/mL (≈ 0.601 µM) | > 10 mg/kg | 0.03 µg/mL (≈ 0.018 µM) | 0.25 µg/mL (≈ 0.15 µM) |  |  |  | 
5 | C=C(NC(=O)c1csc(-c2nc3c(cc2O)-c2nc(cs2)C(=O)N[C@@H]([C@@H](C)O)C(=O)N/C(=C(\C)OC)c2nc(cs2)C(=O)N[C@@H]2c4nc(cs4)C(=O)N[C@@H](COC(=O)c4c5c6c(cccc6n4OCCN4CCOCC4)COC(=O)[C@@H](O[C@H]4C[C@](C)(O)[C@H](N(C)C)[C@H](C)O4)[C@H]2OC5)c2nc-3cs2)n1)C(N)=O |  | 3.4 mg/kg |  |  |  | < 0.125 µg/mL | < 0.015 µg/mL | < 0.25 µg/mL
6 | C=C(NC(=O)c1csc(-c2nc3c(cc2O)-c2nc(cs2)C(=O)N[C@@H]([C@@H](C)O)C(=O)N/C(=C(\C)OC)c2nc(cs2)C(=O)N[C@@H]2c4nc(cs4)C(=O)N[C@@H](COC(=O)c4c5c6c(cccc6n4OCCCN)COC(=O)[C@@H](O[C@H]4C[C@](C)(O)[C@H](N(C)C)[C@H](C)O4)[C@H]2OC5)c2nc-3cs2)n1)C(N)=O | 0.25 µg/mL (≈ 0.167 µM) | > 10 mg/kg | 0.06 µg/mL (≈ 0.0401 µM) | 1 µg/mL (≈ 0.669 µM) |  |  |  | 
7 | C=C(NC(=O)c1csc(-c2nc3c(cc2O)-c2nc(cs2)C(=O)N[C@@H]([C@@H](C)O)C(=O)N/C(=C(\C)OC)c2nc(cs2)C(=O)N[C@@H]2c4nc(cs4)C(=O)N[C@@H](COC(=O)c4c5c6c(cccc6n4OCCOCCOCCOCCOCCOCO)COC(=O)[C@@H](O[C@H]4C[C@](C)(O)[C@H](N(C)C)[C@H](C)O4)[C@H]2OC5)c2nc-3cs2)n1)C(N)=O | 0.125 µg/mL (≈ 0.0741 µM) | > 10 mg/kg | 0.007 µg/mL (≈ 0.00415 µM) | 0.5 µg/mL (≈ 0.296 µM) |  |  |  | 
8 | C=C(NC(=O)c1csc(-c2nc3c(cc2O)-c2nc(cs2)C(=O)N[C@@H]([C@@H](C)O)C(=O)N/C(=C(\C)OC)c2nc(cs2)C(=O)N[C@@H]2c4nc(cs4)C(=O)N[C@@H](COC(=O)c4c5c6c(cccc6n4OC)COC(=O)[C@@H](O[C@H]4C[C@](C)(O)[C@H](N(C)C)[C@H](C)O4)[C@H]2OC5)c2nc-3cs2)n1)C(N)=O | 0.03 µg/mL (≈ 0.0207 µM) | < 0.62 mg/kg | 0.003 µg/mL (≈ 0.00207 µM) | 0.125 µg/mL (≈ 0.0861 µM) |  |  |  | 
9 | C=C(NC(=O)c1csc(-c2nc3c(cc2O)-c2nc(cs2)C(=O)N[C@@H]([C@@H](C)O)C(=O)N/C(=C(\C)OC)c2nc(cs2)C(=O)N[C@@H]2c4nc(cs4)C(=O)N[C@@H](COC(=O)c4c5c6c(cccc6n4OCCCOC4O[C@H](CO)[C@@H](O)[C@H](O)[C@H]4O)COC(=O)[C@@H](O[C@H]4C[C@](C)(O)[C@H](N(C)C)[C@H](C)O4)[C@H]2OC5)c2nc-3cs2)n1)C(N)=O (stereo not given in full) | 16 µg/mL (≈ 9.65 µM) | > 10 mg/kg | 0.06 µg/mL (≈ 0.0362 µM) | > 128 µg/mL |  |  |  | 
10 | C=C(NC(=O)c1csc(-c2nc3c(cc2O)-c2nc(cs2)C(=O)N[C@@H]([C@@H](C)O)C(=O)N/C(=C(\C)OC)c2nc(cs2)C(=O)N[C@@H]2c4nc(cs4)C(=O)N[C@@H](COC(=O)c4c5c6c(cccc6n4OCP(=O)(OCC)OCC)COC(=O)[C@@H](O[C@H]4C[C@](C)(O)[C@H](N(C)C)[C@H](C)O4)[C@H]2OC5)c2nc-3cs2)n1)C(N)=O | 0.015 µg/mL (≈ 0.00945 µM) | 1.6 mg/kg | 0.001 µg/mL (≈ 0.00063 µM) | 0.03 µg/mL (≈ 0.0189 µM) |  |  |  | 
11 | C=C(NC(=O)c1csc(-c2nc3c(cc2O)-c2nc(cs2)C(=O)N[C@@H]([C@@H](C)O)C(=O)N/C(=C(\C)OC)c2nc(cs2)C(=O)N[C@@H]2c4nc(cs4)C(=O)N[C@@H](COC(=O)c4c5c6c(cccc6n4OCCCN4CCN(C)CC4)COC(=O)[C@@H](O[C@H]4C[C@](C)(O)[C@H](N(C)C)[C@H](C)O4)[C@H]2OC5)c2nc-3cs2)n1)C(N)=O | 1 µg/mL (≈ 0.634 µM) | 8.7 mg/kg | 0.03 µg/mL (≈ 0.019 µM) | 1 µg/mL (≈ 0.634 µM) |  |  |  | 
12 | C=C(NC(=O)c1csc(-c2nc3c(cc2OCCCS(=O)(=O)O)-c2nc(cs2)C(=O)N[C@@H]([C@@H](C)O)C(=O)N/C(=C(\C)OC)c2nc(cs2)C(=O)N[C@@H]2c4nc(cs4)C(=O)N[C@@H](COC(=O)c4c5c6c(cccc6n4O)COC(=O)[C@@H](O[C@H]4C[C@](C)(O)[C@H](N(C)C)[C@H](C)O4)[C@H]2OC5)c2nc-3cs2)n1)C(N)=O | 2 µg/mL (≈ 1.28 µM) | > 10 mg/kg | 0.25 µg/mL (≈ 0.16 µM) | 32 µg/mL (≈ 20.5 µM) |  |  |  | 
13 | C=C(NC(=O)c1csc(-c2nc3c(cc2OCC(=O)N(C)C)-c2nc(cs2)C(=O)N[C@@H]([C@@H](C)O)C(=O)N/C(=C(\C)OC)c2nc(cs2)C(=O)N[C@@H]2c4nc(cs4)C(=O)N[C@@H](COC(=O)c4c5c6c(cccc6n4OCC(=O)N(C)C)COC(=O)[C@@H](O[C@H]4C[C@](C)(O)[C@H](N(C)C)[C@H](C)O4)[C@H]2OC5)c2nc-3cs2)n1)C(N)=O | 8 µg/mL (≈ 4.98 µM) | > 10 mg/kg | 0.125 µg/mL (≈ 0.0777 µM) | 4 µg/mL (≈ 2.49 µM) |  |  |  | 
14 | C=CCOc1cc2c(nc1-c1nc(C(=O)NC(=C)C(N)=O)cs1)-c1csc(n1)[C@@H]1COC(=O)c3c4c5c(cccc5n3OCC=C)COC(=O)[C@@H](O[C@H]3C[C@](C)(O)[C@H](N(C)C)[C@H](C)O3)[C@@H](OC4)[C@H](NC(=O)c3csc(n3)/C(=C(/C)OC)NC(=O)[C@H]([C@@H](C)O)NC(=O)c3csc-2n3)c2nc(cs2)C(=O)N1 | 0.06 µg/mL (≈ 0.0395 µM) | > 10 mg/kg | 0.0005 µg/mL (≈ 0.000329 µM) | 0.25 µg/mL (≈ 0.165 µM) |  |  |  | 
15 | C=C(NC(=O)c1csc(-c2nc3c(cc2O)-c2nc(cs2)C(=O)N[C@@H]([C@@H](C)O)C(=O)N/C(=C(\C)OC)c2nc(cs2)C(=O)N[C@@H]2c4nc(cs4)C(=O)N[C@@H](COC(=O)c4c5c6c(cccc6n4OCOP(=O)(OC(C)(C)C)OC(C)(C)C)COC(=O)[C@@H](O[C@H]4C[C@](C)(O)[C@H](N(C)C)[C@H](C)O4)[C@H]2OC5)c2nc-3cs2)n1)C(N)=O | 0.125 µg/mL (≈ 0.0753 µM) | 3 mg/kg | 0.015 µg/mL (≈ 0.00904 µM) | 0.015 µg/mL (≈ 0.00904 µM) | > 2000 µg/mL |  |  | 
16 | C=C(NC(=O)c1csc(-c2nc3c(cc2O)-c2nc(cs2)C(=O)N[C@@H]([C@@H](C)O)C(=O)N/C(=C(\C)OC)c2nc(cs2)C(=O)N[C@@H]2c4nc(cs4)C(=O)N[C@@H](COC(=O)c4c5c6c(cccc6n4OCCC[N+](C)(C)C)COC(=O)[C@@H](O[C@H]4C[C@](C)(O)[C@H](N(C)C)[C@H](C)O4)[C@H]2OC5)c2nc-3cs2)n1)C(N)=O | > 128 µg/mL | > 10 mg/kg | 0.5 µg/mL | 2 µg/mL |  |  |  | 
17 | C=C(NC(=O)c1csc(-c2nc3c(cc2O)-c2nc(cs2)C(=O)N[C@@H]([C@@H](C)O)C(=O)N/C(=C(\C)OC)c2nc(cs2)C(=O)N[C@@H]2c4nc(cs4)C(=O)N[C@@H](COC(=O)c4c5c6c(cccc6n4OCCn4ccnc4)COC(=O)[C@@H](O[C@H]4C[C@](C)(O)[C@H](N(C)C)[C@H](C)O4)[C@H]2OC5)c2nc-3cs2)n1)C(N)=O | 0.5 µg/mL (≈ 0.326 µM) | > 10 mg/kg | 0.015 µg/mL (≈ 0.00979 µM) | 1 µg/mL (≈ 0.653 µM) |  |  |  | 
18 | C=C(NC(=O)c1csc(-c2nc3c(cc2O)-c2nc(cs2)C(=O)N[C@@H]([C@@H](C)O)C(=O)N/C(=C(\C)OC)c2nc(cs2)C(=O)N[C@@H]2c4nc(cs4)C(=O)N[C@@H](COC(=O)c4c5c6c(cccc6n4OCCCS(=O)(=O)O)COC(=O)[C@@H](O[C@H]4C[C@](C)(O)[C@H](N(C)C)[C@H](C)O4)[C@H]2OC5)c2nc-3cs2)n1)C(N)=O | 0.125 µg/mL (≈ 0.0801 µM) | 4 mg/kg | 0.007 µg/mL (≈ 0.00449 µM) | 0.125 µg/mL (≈ 0.0801 µM) | > 2000 µg/mL |  |  | 
19 | C=C(NC(=O)c1csc(-c2nc3c(cc2O)-c2nc(cs2)C(=O)N[C@@H]([C@@H](C)O)C(=O)N/C(=C(\C)OC)c2nc(cs2)C(=O)N[C@@H]2c4nc(cs4)C(=O)N[C@@H](COC(=O)c4c5c6c(cccc6n4OCCC(=O)O)COC(=O)[C@@H](O[C@H]4C[C@](C)(O)[C@H](N(C)C)[C@H](C)O4)[C@H]2OC5)c2nc-3cs2)n1)C(N)=O | 0.125 µg/mL (≈ 0.0828 µM) | 10 mg/kg | 0.03 µg/mL (≈ 0.0199 µM) | 0.25 µg/mL (≈ 0.166 µM) | ~70 µg/mL (≈ 46.4 µM) |  |  | 
